In US20230133958A1, “COMPOUNDS USEFUL IN MODULATING EGFR AND PI3K” (Mekanistic Therapeutics LLC, priority 2021, published 2023):

Experiments:
EGFR = EGFR (Homo sapiens, UniProt P00533); experiment: Z'-LYTE / Adapta biochemical kinase assay, EGFR; conditions: for inhibition at 0.1 µM: concentration of 100 nM/liter, read-out: Percent Inhibition of target enzymes, EGFR
Description: The Z′-LYTE® biochemical assay employs a fluorescence-based, coupled-enzyme format and is based on the differential sensitivity of phosphorylated and non-phosphorylated peptides to proteolytic cleavage. The peptide substrate is labeled with two fluorophores—one at each end—that make up a FRET pair. In the primary reaction, the kinase transfers the gamma-phosphate of ATP to a single tyrosine, serine or threonine residue in a synthetic FRET-peptide. In the secondary reaction, a site-specific protease recognizes and cleaves non-phosphorylated FRET-peptides. Phosphorylation of FRET-peptides suppresses cleavage by the Development Reagent. Cleavage disrupts FRET between the donor (i.e., coumarin) and acceptor (i.e., fluorescein) fluorophores on the FRET-peptide, whereas uncleaved, phosphorylated FRET-peptides maintain FRET. A ratiometric method, which calculates the ratio (the Emission Ratio) of donor emission to acceptor emission after excitation of the donor fluorophore at 400 nm, is used to quantitate reaction progress.
A significant benefit of this ratiometric method for quantitating reaction progress is the elimination of well-to-well variations in FRET-peptide concentration and signal intensities. As a result, the assay yields very high Z′-factor values (>0.7) at a low percent phosphorylation.
Both cleaved and uncleaved FRET-peptides contribute to the fluorescence signals and therefore to the Emission Ratio. The extent of phosphorylation of the FRET-peptide can be calculated from the Emission Ratio. The Emission Ratio will remain low if the FRET-peptide is phosphorylated (i.e., no kinase inhibition) and will be high if the FRET-peptide is non-phosphorylated (i.e., kinase inhibition).
Enzyme: The ADAPTA universal kinase assay is a homogenous, fluorescent based immunoassay for the detection of ADP. In contrast to ATP depletion assays, the ADAPTA assay is extremely sensitive to ADP formation such that a majority of the signal change occurs in the first 10-20% conversion of ATP to ADP. This makes the ADAPTA universal kinase assay ideally suited for use with low activity kinases.
The principle of the ADAPTA universal kinase assay is outlined below. The assay itself can be divided into two phases: a kinase reaction phase, and an ADP detection phase. In the kinase reaction phase, all components required for the kinase reaction are added to the well, and the reaction is allowed to incubate for 60 minutes. After the reaction, a detection solution consisting of a europium labeled anti-ADP antibody, an Alexa Fluor® 647 labeled ADP tracer, and EDTA (to stop the kinase reaction) is added to the assay well. ADP formed by the kinase reaction (in the absence of an inhibitor) will displace the Alexa Fluor® 647 labeled ADP tracer from the antibody, resulting in a decrease in the TR-FRET signal. In the presence of an inhibitor, the amount of ADP formed by the kinase reaction is reduced, and the resulting intact antibody-tracer interaction results in a high TR-FRET signal.
Test Compounds: The Test Compounds are screened in 1% DMSO (final) in the well. For 10 point titrations, 3-fold serial dilutions are conducted from the starting concentration of the customer’s choosing.
Peptide/Kinase Mixtures: All Peptide/Kinase Mixtures are diluted to a 2X working concentration in the appropriate Kinase Buffer.
ATP Solution: All ATP Solutions are diluted to a 4X working concentration in Kinase Buffer (50 mM HEPES pH 7.5, 0.01% BRIJ-35, 10 mM MgCl2,1 mM EGTA). ATP Km apparent is previously determined using a Z′-LYTE® assay.
Development Reagent Solution: The Development Reagent is diluted in Development Buffer.
Assay Protocol: Bar-coded Corning, low volume NBS, black 384-wellplate (Corning Cat. #4514) 1. 2.5 µL - 4X Test Compound or 100 nL 100X plus 2.4 µL kinase buffer. 2. 5 µL - 2X Peptide/Kinase Mixture. 3. 2.5 µL - 4X ATP Solution. 4. 30-second plate shake. 5. 60-minute Kinase Reaction incubation at room temperature. 6. 5 µL - Development Reagent Solution. 7. […]

MDA-MB-468 = experiment: NCI COMPARE panel (SRB growth inhibition), MDA-MB-468; assay type: cell-based; conditions: Homo sapiens; Breast Cancer, MDA-MB-468, 48 h
Method: (§1) The human tumor cell lines of the cancer screening panel are grown in RPMI 1640 medium containing 5% fetal bovine serum and 2 mM L-glutamine. For a typical screening experiment, cells are inoculated into 96 well microtiter plates in 100 µL at plating densities ranging from 5,000 to 40,000 cells/well depending on the doubling time of individual cell lines. After cell inoculation, the microtiter plates are incubated at 37° C., 5% CO2, 95% air and 100% relative humidity for 24 h prior to addition of experimental drugs.
(§2) After 24 h, two plates of each cell line are fixed in situ with TCA, to represent a measurement of the cell population for each cell line at the time of drug addition (Tz). Experimental drugs are solubilized in dimethyl sulfoxide at 400-fold the desired final maximum test concentration and stored frozen prior to use. […]
(§3) Following drug addition, the plates are incubated for an additional 48 h at 37° C., 5 % CO2, 95% air, and 100% relative humidity. […] Bound stain is subsequently solubilized with 10 mM trizma base, and the absorbance is read on an automated plate reader at a wavelength of 515 nm. […] Using the seven absorbance measurements [time zero, (Tz), control growth, (C), and test growth in the presence of drug at the five concentration levels (Ti)], the percentage growth is calculated at each of the drug concentrations levels. Percentage growth inhibition is calculated as: […]

SF-539 = experiment: NCI COMPARE panel (SRB growth inhibition), SF-539; assay type: cell-based; conditions: Homo sapiens; CNS Cancer, SF-539, 48 h
Method: as §1, §2, §3

K-562 = experiment: NCI COMPARE panel (SRB growth inhibition), K-562; assay type: cell-based; conditions: Homo sapiens, K562; Leukemia, K-562, 48 h
Method: as §1, §2, §3

EGFR, sequence (P00533 25-1210): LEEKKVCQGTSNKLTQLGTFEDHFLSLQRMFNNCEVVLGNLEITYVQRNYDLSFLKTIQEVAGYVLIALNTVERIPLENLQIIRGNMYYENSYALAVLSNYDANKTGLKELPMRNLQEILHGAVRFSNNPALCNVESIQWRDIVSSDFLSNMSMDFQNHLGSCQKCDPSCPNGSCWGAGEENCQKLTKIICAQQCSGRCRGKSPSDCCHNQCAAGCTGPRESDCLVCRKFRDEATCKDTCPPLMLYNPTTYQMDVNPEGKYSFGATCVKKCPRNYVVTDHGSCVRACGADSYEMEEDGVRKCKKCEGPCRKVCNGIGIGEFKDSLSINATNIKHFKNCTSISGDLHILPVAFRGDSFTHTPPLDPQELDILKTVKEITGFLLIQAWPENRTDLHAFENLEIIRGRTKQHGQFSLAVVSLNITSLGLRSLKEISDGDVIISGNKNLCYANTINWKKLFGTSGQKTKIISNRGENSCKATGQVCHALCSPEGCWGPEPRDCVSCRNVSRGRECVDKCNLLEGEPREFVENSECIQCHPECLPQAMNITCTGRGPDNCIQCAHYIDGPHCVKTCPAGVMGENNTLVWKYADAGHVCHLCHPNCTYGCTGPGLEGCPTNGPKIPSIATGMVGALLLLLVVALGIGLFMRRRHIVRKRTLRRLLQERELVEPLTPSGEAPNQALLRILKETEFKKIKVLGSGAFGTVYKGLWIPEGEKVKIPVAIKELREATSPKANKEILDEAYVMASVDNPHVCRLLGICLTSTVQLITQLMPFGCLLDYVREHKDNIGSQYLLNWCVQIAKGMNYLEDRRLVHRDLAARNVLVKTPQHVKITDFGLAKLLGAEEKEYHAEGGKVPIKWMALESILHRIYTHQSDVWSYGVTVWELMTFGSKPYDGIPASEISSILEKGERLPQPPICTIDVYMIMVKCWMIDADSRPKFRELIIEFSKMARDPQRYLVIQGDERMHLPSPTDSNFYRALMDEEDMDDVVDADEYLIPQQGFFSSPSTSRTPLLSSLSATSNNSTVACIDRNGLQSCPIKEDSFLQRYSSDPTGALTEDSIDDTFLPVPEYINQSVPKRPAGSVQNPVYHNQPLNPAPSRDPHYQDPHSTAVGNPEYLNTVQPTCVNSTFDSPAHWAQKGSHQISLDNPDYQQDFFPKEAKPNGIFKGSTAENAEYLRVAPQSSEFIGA

| Structure (SMILES) | IC50 (EGFR; EGFR) | inhibition at 0.1 µM (EGFR) | GI50 (MDA-MB-468) | GI50 (SF-539) | GI50 (K-562) |
| --- | --- | --- | --- | --- | --- |
| CS(=O)(=O)Nc1cc(-c2ccc3ncnc(Nc4cccc(Cl)c4F)c3c2)cnc1Cl [Compound 6, N-[2-chloro-5-[4-(3-chloro-2-fluoro-anilino)quinazolin-6-yl]-3-pyridyl] methanesulfonamide] | ≤ 0.002 µM | > 90% | 0.125 to 0.25 µM | 0.125 to 0.25 µM | > 0.25 µM |
| CS(=O)(=O)Nc1cc(-c2ccc3ncc(C#N)c(Nc4cccc(Cl)c4F)c3c2)cnc1Cl [Compound 10, N-[2-chloro-5-[4-(3-chloro-2-fluoro-anilino)-3-cyano-6-quinolyl]-3-pyridyl]methanesulfonamide] |  | > 90% | ≤ 0.075 µM | 0.125 to 0.25 µM | 0.075 to 0.125 µM |
